{
  "source": "BindingDB's records for doi:10.1016/j.bmcl.2007.01.077",
  "about": "(Yale University, 2007)",
  "key": {"[1]": {"target": "Signal transducer and activator of transcription 3 (Mus musculus, UniProt P42227)", "sequence (P42227 whole entry)": "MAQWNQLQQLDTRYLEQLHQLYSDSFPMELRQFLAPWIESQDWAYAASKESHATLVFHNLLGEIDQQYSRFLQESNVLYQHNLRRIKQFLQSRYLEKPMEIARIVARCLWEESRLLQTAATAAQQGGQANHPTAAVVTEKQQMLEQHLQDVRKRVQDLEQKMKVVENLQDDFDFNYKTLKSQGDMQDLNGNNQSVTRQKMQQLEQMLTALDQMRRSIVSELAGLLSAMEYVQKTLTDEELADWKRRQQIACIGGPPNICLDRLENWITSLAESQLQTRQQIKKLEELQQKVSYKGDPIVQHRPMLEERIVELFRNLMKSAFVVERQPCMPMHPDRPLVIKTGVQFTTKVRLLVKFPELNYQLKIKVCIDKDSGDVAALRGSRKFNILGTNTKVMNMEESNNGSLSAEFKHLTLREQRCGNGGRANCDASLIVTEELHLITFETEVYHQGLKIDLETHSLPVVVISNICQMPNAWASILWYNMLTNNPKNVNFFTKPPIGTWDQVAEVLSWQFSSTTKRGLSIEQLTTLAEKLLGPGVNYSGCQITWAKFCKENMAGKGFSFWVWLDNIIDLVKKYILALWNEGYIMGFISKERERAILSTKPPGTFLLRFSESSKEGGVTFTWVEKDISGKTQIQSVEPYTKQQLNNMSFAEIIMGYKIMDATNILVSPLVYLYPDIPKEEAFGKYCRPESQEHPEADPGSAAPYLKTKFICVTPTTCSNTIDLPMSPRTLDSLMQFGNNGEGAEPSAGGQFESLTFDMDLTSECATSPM", "test": "Electrophoretic Mobility Shift Assay (EMSA)", "settings": "pH 7.8; 22 °C", "description": "(§1) STAT proteins were expressed in Sf9 cells from a baculovirus encoding the recombinant protein. A nuclear extract of the Sf9 cells was incubated with 32P-labeled high affinity c-fos sis inducible element (hSIE) either alone or in the presence of inhibitor. After incubation, samples were electrophoresed on polyacrylamide gels. The gels were dried, exposed to a phosphorimager screen and scanned. IC50 values were derived from plots of spot intensity versus phosphopeptide concentration. The affinity of peptides to the SH2 domain is measured by the intensity of the radioactivity of the Stat-DNA complex band in the electrophoresis gel."}, "[2]": {"target": "T1, Signal transducer and activator of transcription 1-alpha/beta (Homo sapiens, UniProt P42224)", "T1 sequence (P42224 whole entry)": "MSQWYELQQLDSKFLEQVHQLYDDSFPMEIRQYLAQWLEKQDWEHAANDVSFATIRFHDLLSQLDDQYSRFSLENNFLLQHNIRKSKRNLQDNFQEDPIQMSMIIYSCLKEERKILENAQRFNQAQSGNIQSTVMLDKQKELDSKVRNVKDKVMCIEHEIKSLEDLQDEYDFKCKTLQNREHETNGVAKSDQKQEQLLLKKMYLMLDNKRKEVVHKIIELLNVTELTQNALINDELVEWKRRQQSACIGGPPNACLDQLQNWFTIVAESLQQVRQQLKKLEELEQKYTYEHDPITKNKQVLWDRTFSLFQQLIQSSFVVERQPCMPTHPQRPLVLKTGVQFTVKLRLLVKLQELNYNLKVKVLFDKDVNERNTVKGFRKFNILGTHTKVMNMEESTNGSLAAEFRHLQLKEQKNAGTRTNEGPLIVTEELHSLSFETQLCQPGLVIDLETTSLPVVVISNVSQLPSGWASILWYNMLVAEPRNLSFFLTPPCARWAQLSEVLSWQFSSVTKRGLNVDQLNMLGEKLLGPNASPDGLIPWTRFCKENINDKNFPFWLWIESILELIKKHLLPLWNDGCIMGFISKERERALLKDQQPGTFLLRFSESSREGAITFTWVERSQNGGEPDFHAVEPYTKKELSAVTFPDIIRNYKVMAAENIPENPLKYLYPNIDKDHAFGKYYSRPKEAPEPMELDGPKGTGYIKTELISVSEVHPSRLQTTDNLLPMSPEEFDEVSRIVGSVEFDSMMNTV", "test": "Electrophoretic Mobility Shift Assay (EMSA)", "settings": "pH 7.8; 22 °C", "description": "as §1"}},
  "note": "pIC50: −log10 of the molar value.",
  "data": [
    {"smiles": "CC(C)C[C@H](NC(=O)[C@H](Cc1ccc(OP(=O)(O)O)cc1)NC(=O)c1ccc(C#N)cc1)C(=O)NC(C)C", "note": "[4-[(2S)-2-[(4-cyanophenyl)formamido]-2-{[(1S)-3-methyl-1-(propan-2-ylcarbamoyl)butyl]carbamoyl}ethyl]phenoxyphosphonic acid]", "values": [
      {"measurement": "pIC50", "setting": "[1]", "value": 3.12},
      {"measurement": "pIC50", "setting": "[2]", "value": 4.24}
    ]}
  ]
}
